In patent US5519155A, “Platinum complexes” (Johnson Matthey Public Limited Company, priority 1994, dated 1996):

Tests used:
41M = test: In vitro cytotoxicity (SRB assay), human ovarian carcinoma line 41M; assay type: cell-based; settings: 41M cells, exposure 48 to 96 hours
Procedure: (§1) Monolayer cells were trypsinized and seeded in 96-well microtiter plates at a density of 1×10^4 cells/well in 200 μl of growth medium. Cells were incubated overnight and test compounds were added to triplicate wells at various concentrations for a total of 48 to 96 hours. For toxicity analysis after drug exposure, the cells were fixed with trichloroacetic acid and stained for cellular protein content by incubation for 30 minutes with 0.4% (wt/vol) sulphorhodamine B (SRB) dissolved in 1% acetic acid. The unbound dye was removed by 1% acetic acid washes, and the bound dye was extracted with 10 mM Tris buffer. The amount of dye in solution was quantified by absorbance at 564 nm.

Adj/PC6 tumours = test: In vivo test in mice having Adj/PC6 tumours (LD50, ED90, TI); settings: for ED90 / LD50 / TI (ratio of LD50 to ED90): mice, Adj/PC6 tumours
Procedure: The compounds of the invention were then tested in vivo in mice having Adj/PC6 tumours. The Adj/PC6 testing was carried out as described by P M Goddard et al presented in Sixth NCI-EORTC Symposium on New Drugs in Cancer Therapy 1989, which is a development of the basic method described by T A Connors et al, Chem Biol Interact 5,415 (1972). The animals were sacrificed when moribund. The compounds were administered parenterally (ip) or orally (po), or in the case of the Example 2 compound, iv at doses of 2.5, 5, 10 and 20 mg/kg (4 animals per dose group).
In the testing, LD50 and ED90 values in mg/kg body weight were determined in the conventional manner. The therapeutic index (TI) was calculated as the ratio of LD50 to ED90, and the results are shown below.

HX-62 = test: In vitro cytotoxicity (SRB assay), human ovarian carcinoma line HX-62; assay type: cell-based; settings: HX-62 cells, exposure 48 to 96 hours
Procedure: as §1

41M^R = test: In vitro cytotoxicity (SRB assay), human ovarian carcinoma line 41M^R; assay type: cell-based; settings: 41M^R cells, exposure 48 to 96 hours
Procedure: as §1

SKOV-3 = test: In vitro cytotoxicity (SRB assay), human ovarian carcinoma line SKOV-3; assay type: cell-based; settings: SKOV-3 cells, exposure 48 to 96 hours
Procedure: as §1

CH1 = test: In vitro cytotoxicity (SRB assay), human ovarian carcinoma line CH1; assay type: cell-based; settings: CH1 cells, exposure 48 to 96 hours
Procedure: as §1

CH^R = test: In vitro cytotoxicity (SRB assay), human ovarian carcinoma line CH^R; assay type: cell-based; settings: CH^R cells, exposure 48 to 96 hours
Procedure: as §1

A2780^R = test: In vitro cytotoxicity (SRB assay), human ovarian carcinoma line A2780^R; assay type: cell-based; settings: A2780^R cells, exposure 48 to 96 hours
Procedure: as §1

A2780 = test: In vitro cytotoxicity (SRB assay), human ovarian carcinoma line A2780; assay type: cell-based; settings: A2780 cells, exposure 48 to 96 hours
Procedure: as §1

[1] = i.v., doses 2.5, 5, 10 and 20 mg/kg

| SMILES | IC50 (41M) [µM] | ED90 (Adj/PC6 tumours; i.p.) [mg/kg] | LD50 (Adj/PC6 tumours; i.p.) [mg/kg] | TI (ratio of LD50 to ED90) (Adj/PC6 tumours; i.p.) | IC50 (HX-62) [µM] | IC50 (41M^R) [µM] | IC50 (SKOV-3) [µM] | IC50 (CH1) [µM] | ED90 (Adj/PC6 tumours; [1]) [mg/kg] | LD50 (Adj/PC6 tumours; [1]) [mg/kg] | TI (ratio of LD50 to ED90) (Adj/PC6 tumours; [1]) | therapeutic index, oral route compared to parenteral administration (Adj/PC6 tumours; oral vs parenteral, in words) | ED90 (Adj/PC6 tumours; p.o.) [mg/kg] | LD50 (Adj/PC6 tumours; p.o.) [mg/kg] | TI (ratio of LD50 to ED90) (Adj/PC6 tumours; p.o.) | IC50 (CH^R) [µM] | IC50 (A2780^R) [µM] | IC50 (A2780) [µM] |
| --- | --- | --- | --- | --- | --- | --- | --- | --- | --- | --- | --- | --- | --- | --- | --- | --- | --- | --- |
| CCCC(=O)[O][Pt]([Cl])([O]C)[O]C(=O)CCC.N.NC1CCCCC1 [Example 1, c,t,c-[PtCl(OMe)(O2 CC3 H7)2 NH3 (c-C6 H11 NH2)]] | 0.01 | 2.6 | 17.5 | 6.7 | 0.22 | 0.013 | 0.03 | 0.002 |  |  |  |  |  |  |  |  |  |  |
| CC(=O)[O][Pt]([OH])([OH])[O]C(C)=O.N.NC1CCCCC1 [Example 2, c,t,c-[Pt(OH)2 (OAc)2 NH3 (c-C6 H11 NH2)]] | 6.5 | 4.2 | 17.5 | 4.2 | 37 | 4.3 | 21 | 0.74 | < 2.5 | 14 | > 5.6 | greater therapeutic index | 42 | 670 | 16 | 1.35 | 3.7 | 4.2 |
| CC(C)N.CC(C)N.CCCCCC(=O)[O][Pt]([OH])([Cl])[O]C(=O)CCCCC [Example 3, c,t,c-[PtCl(OH)(O2 CC5 H11)2 (i-C3 H7 NH2)2]] | < 0.0025 |  |  |  | 0.05 | < 0.0025 | 0.0046 | < 0.0025 |  |  |  |  |  |  |  | < 0.0025 | 0.0029 | < 0.0025 |
| CC(=O)[O][Pt]([OH])([Cl])[O]C(C)=O.CC(C)N.CC(C)N [Example 4, c,t,c-[PtCl(OH)(OAc)2 (i-C3 H7 NH2)2]] | 0.89 |  |  |  | 2.1 | 0.59 | 1.6 | 0.086 |  |  |  |  |  |  |  | 0.21 | 1.9 | 0.65 |
| CC(=O)[O][Pt]([OH])([Cl])[O]C(C)=O.N.NC1CCCCC1 [Example 6, c,t,c-[PtCl(OH)(OAc)2 NH3 (c-C6 H11 NH2)]] | 0.24 |  |  |  | 3.1 | 0.44 | 1.15 | 0.022 |  |  |  |  |  |  |  | 0.082 | 0.93 | 0.31 |
| CC(C)N.CC(C)N.C[O][Pt]([OH])([O]C(C)=O)[O]C(C)=O [Example 7, c,t,c-[Pt(OH)(OMe)(OAc)2 (i--C3 H7 NH2)2]] | 3.1 |  |  |  | 12.5 | 2.5 | 6.1 | 0.26 |  |  |  |  |  |  |  |  |  |  |
